Experimental data published in patent US20230024096A1, “BIFUNCTIONAL COMPOUNDS FOR THE TREATMENT OF CANCER” (Hoffmann-La Roche Inc., priority 2019, published 2023).

Molecular target: T1, SMARCA2 (Homo sapiens, UniProt P51531)
T1 construct: endogenous in cells; host or cells: HT1080 (CRISPR HiBiT knock-in clone, generated in house)
Assay: SMARCA2 HiBiT degradation assay (cellular)
Assay type: cell-based
Conditions: table head names A549; for DC50: 6 h incubation, HiBiT-tagged SMARCA2, luminescence read-out, read-out: HiBit A549 SMARCA2 IP (nM) 6 h; for Emax: A549, 6 h incubation, Emax = amount of residual protein remaining in the cell following compound treatment

T1 sequence (P51531 whole entry): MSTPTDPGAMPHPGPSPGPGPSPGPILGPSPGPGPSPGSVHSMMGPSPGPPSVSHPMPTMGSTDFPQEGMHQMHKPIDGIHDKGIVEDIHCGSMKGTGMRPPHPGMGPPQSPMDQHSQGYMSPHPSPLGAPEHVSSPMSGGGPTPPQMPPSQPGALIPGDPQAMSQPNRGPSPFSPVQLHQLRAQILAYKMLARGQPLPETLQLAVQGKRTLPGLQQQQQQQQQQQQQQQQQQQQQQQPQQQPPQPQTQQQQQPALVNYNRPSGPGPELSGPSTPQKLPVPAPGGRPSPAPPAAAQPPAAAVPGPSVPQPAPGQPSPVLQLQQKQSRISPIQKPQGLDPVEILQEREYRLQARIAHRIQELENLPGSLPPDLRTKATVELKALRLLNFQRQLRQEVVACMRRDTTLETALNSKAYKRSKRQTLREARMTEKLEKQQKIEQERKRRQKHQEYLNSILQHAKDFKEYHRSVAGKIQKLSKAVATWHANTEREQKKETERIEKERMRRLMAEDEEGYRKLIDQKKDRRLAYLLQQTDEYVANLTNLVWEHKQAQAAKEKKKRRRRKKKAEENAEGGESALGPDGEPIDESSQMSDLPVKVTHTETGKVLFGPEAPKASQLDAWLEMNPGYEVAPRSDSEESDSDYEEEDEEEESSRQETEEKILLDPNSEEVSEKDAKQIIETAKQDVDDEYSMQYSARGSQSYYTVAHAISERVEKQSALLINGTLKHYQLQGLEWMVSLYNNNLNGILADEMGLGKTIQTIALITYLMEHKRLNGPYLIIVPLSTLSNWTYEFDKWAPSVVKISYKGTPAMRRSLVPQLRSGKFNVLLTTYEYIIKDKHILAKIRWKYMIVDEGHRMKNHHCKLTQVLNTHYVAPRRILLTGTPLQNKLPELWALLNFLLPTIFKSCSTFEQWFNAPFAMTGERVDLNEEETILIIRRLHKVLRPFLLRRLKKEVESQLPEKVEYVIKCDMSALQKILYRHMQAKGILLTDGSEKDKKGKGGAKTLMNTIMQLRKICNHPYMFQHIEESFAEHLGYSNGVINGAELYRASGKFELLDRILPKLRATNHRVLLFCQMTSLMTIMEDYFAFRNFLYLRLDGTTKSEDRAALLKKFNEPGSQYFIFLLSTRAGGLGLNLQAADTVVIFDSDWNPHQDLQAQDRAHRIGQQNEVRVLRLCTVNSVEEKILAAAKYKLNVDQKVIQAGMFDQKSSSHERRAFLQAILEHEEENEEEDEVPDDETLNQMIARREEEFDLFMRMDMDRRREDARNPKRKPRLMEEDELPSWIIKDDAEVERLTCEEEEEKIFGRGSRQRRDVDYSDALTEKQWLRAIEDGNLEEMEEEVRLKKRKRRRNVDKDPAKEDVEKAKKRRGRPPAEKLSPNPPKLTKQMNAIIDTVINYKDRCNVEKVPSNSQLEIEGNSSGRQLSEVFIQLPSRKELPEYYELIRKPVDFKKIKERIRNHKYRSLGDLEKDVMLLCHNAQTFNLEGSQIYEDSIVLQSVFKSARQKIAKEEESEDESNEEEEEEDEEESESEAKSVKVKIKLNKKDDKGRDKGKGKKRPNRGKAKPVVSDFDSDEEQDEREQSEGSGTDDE

Compound | DC50 [nM] | Emax [%]
Nc1nnc(-c2ccccc2O)cc1N1CC(Oc2ccc(CN3CCN(C(=O)CCCCCCCCCNc4cccc5c4C(=O)N(C4CCC(=O)NC4=O)C5=O)CC3)cc2)C1 (stereo not shown) [Example 68, 4-[[10-[4-[[4-[1-[3-amino-6-(2-hydroxyphenyl)pyridazin-4-yl]azetidin-3-yl]oxyphenyl]methyl]piperazin-1-yl]-10-oxo-decyl]amino]-2-(2,6-dioxo-3-piperidyl)isoindoline-1,3-dione] | 201 | 55
Nc1nnc(-c2ccccc2O)cc1N1CC2CCC(C1)N2c1cccc(OCCN2CCN(C(=O)CN3CCC(c4ccc(NC5CCC(=O)NC5=O)cc4)CC3)CC2)c1 (racemic) [Example 79, rac-3-[4-[1-[2-[4-[2-[3-[3-[3-amino-6-(2-hydroxyphenyl)pyridazin-4-yl]-3,8-diazabicyclo[3.2.1]octan-8-yl]phenoxy]ethyl]piperazin-1-yl]-2-oxo-ethyl]-4-piperidyl]anilino]piperidine-2,6-dione] | 19 | 46
Nc1nnc(-c2ccccc2O)cc1N1CCC2(CC1)CN(c1cccc(OCCN3CCN(C(=O)C4CCN(c5ccc6c(c5)C(=O)N(C5CCC(=O)NC5=O)C6=O)CC4)CC3)c1)CCO2 (stereo not shown) [Example 83, 5-(4-(4-(2-(3-(9-(3-amino-6-(2-hydroxyphenyl)pyridazin-4-yl)-1-oxa-4,9-diazaspiro[5.5]undecan-4-yl)phenoxy)ethyl)piperazine-1-carbonyl)piperidin-1-yl)-2-(2,6-dioxopiperidin-3-yl)isoindoline-1,3-dione] | 273 | 59
Nc1nnc(-c2ccccc2O)cc1O[C@H]1CCCN(c2ccc(N3CCN(CCCCCCCCCn4cc(CNc5cccc6c5C(=O)N(C5CCC(=O)NC5=O)C6=O)nn4)CC3)cc2)C1 (mixture of isomers) [Example 66, 2-(2,6-dioxo-3-piperidyl)-4-[[1-[9-[4-[4-[rac-(3S)-3-[3-amino-6-(2-hydroxyphenyl)pyridazin-4-yl]oxy-1-piperidyl]phenyl]piperazin-1-yl]nonyl]triazol-4-yl]methylamino]isoindoline-1,3-dione] | 144 | 60
Nc1nnc(-c2ccccc2O)cc1N1CCN(c2ccccc2)C(C(=O)NC2CCN(C(=O)CC3CCN(c4ccc5c(c4)C(=O)N(C4CCC(=O)NC4=O)C5=O)CC3)CC2)C1 (stereo not shown) [Example 53, 4-[3-amino-6-(2-hydroxyphenyl)pyridazin-4-yl]-N-[1-[2-[1-[2-(2,6-dioxo-3-piperidyl)-1,3-dioxo-isoindolin-5-yl]-4-piperidyl]acetyl]-4-piperidyl]-1-phenyl-piperazine-2-carboxamide] | 122 | 46
Nc1nnc(-c2ccccc2O)cc1N1CCC(C(=O)N2CCC3(CC2)CN(C(=O)CC2CCN(c4ccc5c(c4)C(=O)N(C4CCC(=O)NC4=O)C5=O)CC2)CCO3)(c2ccccc2)CC1 (stereo not shown) [Example 168, 5-(4-(2-(9-(1-(3-amino-6-(2-hydroxyphenyl)pyridazin-4-yl)-4-phenylpiperidine-4-carbonyl)-1-oxa-4,9-diazaspiro[5.5]undecan-4-yl)-2-oxoethyl)piperidin-1-yl)-2-(2,6-dioxopiperidin-3-yl)isoindoline-1,3-dione] | 111 | 60
Nc1nnc(-c2ccccc2O)cc1N1CCC(C(=O)NCC2CCN(C(=O)CC3CCN(c4ccc5c(c4)C(=O)N(C4CCC(=O)NC4=O)C5=O)CC3)CC2)(c2ccccc2)CC1 (stereo not shown) [Example 103, 1-(3-amino-6-(2-hydroxyphenyl)pyridazin-4-yl)-N-((1-(2-(1-(2-(2,6-dioxopiperidin-3-yl)-1,3-dioxoisoindolin-5-yl)piperidin-4-yl)acetyl)piperidin-4-yl)methyl)-4-phenylpiperidine-4-carboxamide] | 104 | 45
CC(Nc1cccc2c1C(=O)N(C1CCC(=O)NC1=O)C2=O)c1cn(CCCCCCCCCN2CCN(c3ccc(N4CCCC(Oc5cc(-c6ccccc6O)nnc5N)C4)cc3)CC2)nn1 (stereo not shown) [Example 89, 4-[1-[1-[9-[4-[4-[3-[3-amino-6-(2-hydroxyphenyl)pyridazin-4-yl]oxy-1-piperidyl]phenyl]piperazin-1-yl]nonyl]triazol-4-yl]ethylamino]-2-(2,6-dioxo-3-piperidyl)isoindoline-1,3-dione] | 55 | 30
Nc1nnc(-c2ccccc2O)cc1N1CC2CCC(C1)N2c1cccc(CN2CCN(C(=O)C3CCN(c4ccc5c(c4)C(=O)N(C4CCC(=O)NC4=O)C5=O)CC3)CC2)n1 (racemic) [Example 131, rac-5-[4-[4-[[6-[3-[3-amino-6-(2-hydroxyphenyl)pyridazin-4-yl]-3,8-diazabicyclo[3.2.1]octan-8-yl]-2-pyridyl]methyl]piperazine-1-carbonyl]-1-piperidyl]-2-(2,6-dioxo-3-piperidyl)isoindoline-1,3-dione] | 27 | 32
Nc1nnc(-c2ccccc2O)cc1N1CCC(C(=O)N2CC3(CN(C(=O)CCCN4CCC(c5ccc(OC6CCC(=O)NC6=O)cc5)CC4)C3)C2)(c2ccccc2)CC1 (stereo not shown) [Example 123, 3-(4-(1-(4-(6-(1-(3-amino-6-(2-hydroxyphenyl)pyridazin-4-yl)-4-phenylpiperidine-4-carbonyl)-2,6-diazaspiro[3.3]heptan-2-yl)-4-oxobutyl)piperidin-4-yl)phenoxy)piperidine-2,6-dione] | 75 | 34
Nc1nnc(-c2ccccc2O)cc1OC1CCCN(c2ccc(N3CCN(C(=O)CCCCCCCCn4cc(CNc5cccc6c5C(=O)N(C5CCC(=O)NC5=O)C6=O)nn4)CC3)cc2)C1 (stereo not shown) [Example 3, 4-[[1-[9-[4-[4-[3-[3-amino-6-(2-hydroxyphenyl)pyridazin-4-yl]oxy-1-piperidyl]phenyl]piperazin-1-yl]-9-oxo-nonyl]triazol-4-yl]methylamino]-2-(2,6-dioxo-3-piperidyl)isoindoline-1,3-dione] | 65 | 50
Nc1nnc(-c2ccccc2O)cc1N1CC2CCC(C1)N2c1cccc(OCCN2CCN(C(=O)CCCCCCCCNc3cccc4c3C(=O)N(C3CCC(=O)NC3=O)C4=O)CC2)c1 (stereo not shown) [Example 6, 4-[[9-[4-[2-[3-[3-[3-amino-6-(2-hydroxyphenyl)pyridazin-4-yl]-3,8-diazabicyclo[3.2.1]octan-8-yl]phenoxy]ethyl]piperazin-1-yl]-9-oxo-nonyl]amino]-2-(2,6-dioxo-3-piperidyl)isoindoline-1,3-dione] | 334 | 58
Nc1nnc(-c2ccccc2O)cc1N1CC2CCC(C1)N2c1ccccc1OCCN1CCN(c2ccc3c(c2)C(=O)N(C2CCC(=O)NC2=O)C3=O)CC1 (racemic) [Example 144, rac-5-[4-[2-[2-[3-[3-amino-6-(2-hydroxyphenyl)pyridazin-4-yl]-3,8-diazabicyclo[3.2.1]octan-8-yl]phenoxy]ethyl]piperazin-1-yl]-2-(2,6-dioxo-3-piperidyl)isoindoline-1,3-dione] | 797 | 75
Nc1nnc(-c2ccccc2O)cc1OC1CCCN(c2ccc(OCCN3CCN(C(=O)CCCCCCCCCCCn4cc(CNc5cccc6c5C(=O)N(C5CCC(=O)NC5=O)C6=O)nn4)CC3)cc2)C1 (stereo not shown) [Example 23, 4-[[1-[12-[4-[2-[4-[3-[3-amino-6-(2-hydroxyphenyl)pyridazin-4-yl]oxy-1-piperidyl]phenoxy]ethyl]piperazin-1-yl]-12-oxo-dodecyl]triazol-4-yl]methylamino]-2-(2,6-dioxo-3-piperidyl)isoindoline-1,3-dione] | 157 | 45
